Tested on: Na^+,K^+-ATPase
Assay: Na^+,K^+-ATPase inhibition rate (potassium ion concentration antagonist type), molybdate colorimetry
Type: biochemical
Conditions: 1 µM
Protocol: It is known that ouabain inhibits the enzyme activity of Na^+,K^+-ATPase. As such the Na^+,K^+-ATPase inhibitory activity of the various substances used as antigens in Example 4, Part B was examined to investigate the correlation between that inhibitory activity and reactivity with the monoclonal antibody of the present invention.
1.35 ml of TES buffer (80 mM TES, 200 mM NaCl, 9 mM MgSO4·7H2O and 10 mM EGTA adjusted to pH 7.4 with NaOH), 0.27 ml of 0.2% ODG (octyl-D-glucoside), 0.27 ml of 10^-5 M sample (10^-6 M during reaction), and 0.44 ml of distilled water were added to a plastic test tube which was then placed in an incubator at 25°C. 0.27 ml of 1 mM or 100 mM KCl and 50 µl of ATPase solution (stock solution, in which 5 units of […] (Sigma) were dissolved in 2 ml of 10 mM TES (pH 7.4) diluted 2.5 times with 10 mM TES (pH 7.4) as necessary) were added followed by incubation for 5 - 10 minutes at 25°C. Next, the reaction was started by addition of 50 µl of ATP solution (71 mg of ATP dissolved in 5 ml of 10 mM TES (pH 7.4) (Sigma)).
The reaction was allowed to proceed at 25°C for 30 minutes in the case of using 1 mM KCl (0.1 mM in the reaction solution), and for 10 minutes in the case of using 100 mM KCl (10 mM in the reaction solution). Next, 0.03 ml of 1% Triton™ X-100 solution (in distilled water) and 0.3 ml of 2.5% AmM solution (5 g of (NH4)6Mo7O24·4H2O dissolved in 6 N H2SO4 and brought to a volume of 200 ml) were mixed immediately prior to use (for a total of 0.33 ml) and then added to the reaction solution followed by incubation for 10 minutes at 25°C to stop the reaction and develop color. The absorbance of the reaction solution was then measured at 660 nm and the Na^+,K^+-ATPase inhibition rate (%) was calculated according to the following formula. Na^+ ,K^+ -ATPase Inhibition Rate (%) = [(Ao -Aw )/Ao ] × 100 [formula] Ao: Na^+,K^+-ATPase activity when sample not added Aw: Na^+,K^+-ATPase activity when sample added

[1] = 0.1 mM K^+ in the reaction solution, sample 10^-6 M during reaction, 30 minutes at 25°C
[2] = 10 mM K^+ in the reaction solution, sample 10^-6 M during reaction, 10 minutes at 25°C

Row | SMILES | (Na^+,K^+-ATPase Inhibition) Rate (%) 0.1 mM K^+ [1] | (Na^+,K^+-ATPase Inhibition) Rate (%) 10 mM K^+ [2] | (Na^+,K^+-ATPase Inhibition) Rate (%) 0.1 mM K^+ | (Na^+,K^+-ATPase Inhibition) Rate (%) 10 mM K^+
1 | C[C@H]1CCCC[C@H]1O (relative stereo) [cis-2-Methylcyclohexanol] | -2% | 2% | – | –
2 | O=C1C=CCO1 [2(5H)-Furanone] | 6% | -5% | – | –
3 | CCCCC/C=C\C/C=C\C/C=C\C/C=C\CCCC(=O)O [Arachidonic acid] | -5% | -2% | – | –
4 | C[C@H](CCC(=O)O)[C@H]1CC[C@H]2[C@@H]3[C@H](O)C[C@@H]4C[C@H](O)CC[C@]4(C)[C@H]3C[C@H](O)[C@]12C [Cholic acid] | 2% | -3% | – | –
5 | C[C@]12C[C@H](O)[C@H]3[C@@H](CCC4=CC(=O)CC[C@@]43C)[C@@H]1CC[C@@H]2C(=O)CO [Corticosterone] | -4% | 1% | – | –
6 | OC1CCCCC1 [Cyclohexanol] | -3% | 0.4% | – | –
7 | C[C@]12CC[C@H](O)C[C@H]1CC[C@@H]1[C@@H]2CC[C@]2(C)[C@@H](C3=CC(=O)OC3)CC[C@]12O [Digitoxigenin] | – | – | 44% | 17%
8 | C[C@H]1O[C@@H](O[C@H]2[C@@H](O)C[C@H](O[C@H]3[C@@H](O)C[C@H](O[C@H]4CC[C@@]5(C)[C@H](CC[C@@H]6[C@@H]5CC[C@]5(C)[C@@H](C7=CC(=O)OC7)CC[C@]65O)C4)O[C@@H]3C)O[C@@H]2C)C[C@H](O)[C@@H]1O [Digitoxin] | 41% | 11% | – | –
9 | C[C@H]1O[C@@H](O[C@H]2[C@@H](O)C[C@H](O[C@H]3[C@@H](O)C[C@H](O[C@H]4CC[C@@]5(C)[C@H](CC[C@@H]6[C@@H]5C[C@@H](O)[C@]5(C)[C@@H](C7=CC(=O)OC7)CC[C@]65O)C4)O[C@@H]3C)O[C@@H]2C)C[C@H](O)[C@@H]1O [Digoxin] | – | – | 45% | 18%
10 | C[C@]12CCC(=O)C=C1CC[C@@H]1[C@@H]2[C@@H](O)C[C@@]2(C)[C@H]1CC[C@]2(O)C(=O)CO [Hydrocortisone] | -3% | -1% | – | –
11 | C[C@@H]1OC(O)[C@H](O)[C@H](O)[C@H]1O (stereo partly drawn) [L-Rhamnose] | -2% | -4% | – | –
12 | CCCCC/C=C\C/C=C\CCCCCCCC(=O)O [Linoleic acid] | -7% | -5% | – | –
13 | CCCCCCCCCCCCCCCCOC[C@@H](O)COP(=O)([O-])OCC[N+](C)(C)C [LisoPAF, L-α-lysophosphatidylcholine-γ-O-hexadecyl] | -2% | 0.4% | – | –
14 | C[C@]12C[C@@H](O)[C@H]3[C@@H](CC[C@]4(O)C[C@@H](O)C[C@@H](O)[C@]34CO)[C@@]1(O)CC[C@@H]2C1=CC(=O)OC1 [Ouabagenin] | 44% | 6% | – | –
15 | C[C@@H]1O[C@@H](O[C@H]2C[C@@H](O)[C@]3(CO)[C@H]4[C@H](O)C[C@]5(C)[C@@H](C6=CC(=O)OC6)CC[C@]5(O)[C@@H]4CC[C@]3(O)C2)[C@H](O)[C@H](O)[C@H]1O [Ouabain] | 41% | 18% | – | –
16 | CCCCCCCCCCCCCCCCOC[C@H](COP(=O)([O-])OCC[N+](C)(C)C)OC(C)=O [PAF, L-d-phosphatidylcholine-β-aceyl-γ-O-hexadecyl] | -3% | 1% | – | –
17 | CC(=O)[C@H]1CC[C@H]2[C@@H]3CCC4=CC(=O)CC[C@]4(C)[C@H]3CC[C@]12C [Progesterone] | 3% | 5% | – | –
18 | C[C@]12CC[C@H](O)C[C@@H]1CC[C@@H]1[C@@H]2CC[C@]2(C)[C@@H](C3=CC(=O)OC3)CC[C@]12O [Uzarigenin] | – | – | 42% | 6%
19 | C1CC[C@H]2CCC[C@H]2C1 [cis-Hydrindane] | -1% | 0.5% | – | –
20 | C[C@]12CCC(=O)C=C1CC[C@@H]1[C@@H]2[C@@H](O)C[C@]2(C=O)[C@@H](C(=O)CO)CC[C@@H]12 [α-Aldosterone] | 1% | -11% | – | –

Source: EP0517918B1, “MONOCLONAL ANTIBODY AGAINST CARDIAC GLYCOSIDE AND UTILIZATION THEREOF” (SUNTORY LIMITED, priority 1990, dated 1992)
